Test results taken from US20200147217A1, “FUCOIDAN-BASED THERAGNOSTIC COMPOSITION” (National Cancer Center, priority 2018, published 2020).

Key:
[1] = tested on: HT1080 human fibrosarcoma-transplanted animal model; experiment: Tumor-targeting fluorescence imaging after intravenous injection; assay type: in vivo, mice
Experimental: In Example 11, in order to analyze a tumor-targeting effect of a photosensitizer-fucoidan conjugate, an experiment was performed, in which the conjugate is intravenously administered to an experimental animal and a fluorescence image is taken.
Phosphate buffer (negative control), a free photosensitizer (free Ce6), or a photosensitizer-fucoidan conjugate (Ce6-Fucoidan) was injected intravenously, respectively, into an HT1080 human fibrosarcoma-transplanted animal model, and fluorescence images were taken with an IVIS imaging machine at 5 minutes and 24 hours after the injection (λex 660/20 nm, λem 710/40 nm). […] In FIG. 19B, fluorescence image signal values of the tumor tissues are quantified to compare the amount of photosensitizer accumulated in the tumor tissues. […] FIG. 19C illustrates results obtained by allowing mice to be euthanized, obtaining spleen, kidney, liver, and lung tissues, and identifying ex vivo fluorescence images thereof. […] FIG. 19D illustrates results obtained by freezing the obtained tumor tissues to prepare frozen sections, and then identifying, with a confocal microscope, a degree of penetration of the photosensitizer into each tumor tissue.

[2] = tested on: HT1080 subcutaneous xenograft tumor; experiment: Tumor growth inhibition in HT1080 xenograft model; assay type: in vivo, Nude mice (Balb/c nude); conditions: 5 mg Ce6 equivalent/kg i.v., +PDT 670 nm, 20 J/cm^2
Experimental: A photodynamic therapeutic effect caused by a photosensitizer-fucoidan conjugate was evaluated in a tumor-transplanted animal model. A tumor model into which HT1080 cancer cells are subcutaneously xenografted was injected intravenously with a free photosensitizer (free Ce6) or Ce6-Fucoidan, and light irradiation (PDT) was performed on the tumor site using a 670 nm laser. To evaluate an antitumor effect, the tumor size was measured daily for 10 days, and differences between the respective groups were analyzed. For the control experimental animals, phosphate buffer containing no photosensitizer was injected intravenously.
HT1080, a human fibrosarcoma cell line, was obtained from the American Type Culture Collection (ATCC, USA). The HT1080 cells were cultured, under conditions of 37° C., 5% carbon dioxide, and standard humidity, in Eagle's Minimum Essential Media (MEM) medium supplemented with 10% fetal bovine serum (FBS) and 1% penicillin/streptomycin. Nude mice (Balb/c nude) were subcutaneously injected with HT1080 cancer cells as much as 5×10^6 cells/100 μL, and after 5 to 7 days, it was checked whether subcutaneous tumors are produced. […] The tumor size was measured until Day 10 to prepare a tumor growth graph, and the tumor size was compared between the respective groups. […]

- retention in the body ([1]; intravenous, up to 24 hours, fluorescence imaging): hardly remains in the body at 24 hours
Substance: chlorin e6 [free Ce6]
- fluorescence signal caused by the photosensitizer in tumor frozen sections ([1]; confocal microscope, 24 hours after administration): hardly observed
- fluorescence image signal in tumor tissues ([1]; intravenous, 24 hours after injection, IVIS): no fluorescence image signal even in tumor tissues
- tumor growth inhibitory effect compared with the control [2]: no statistically significant tumor growth inhibitory effect
